Values quoted from earlier work as cited in patent US10940128B2, “Injectable melphalan compositions comprising a cyclodextrin derivative and methods of making and using the same” (CYDEX PHARMACEUTICALS, INC., priority 2009, dated 2021).
Like-named read-outs stand apart in the source and are kept apart here.

What was measured:
[1] = test system: certain animal tumors; details: in vivo; cited from earlier work
[2] = water (pH 7); cited from earlier work
[3] = test system: plasma proteins; details: cited from earlier work
[4] = patients who have received intravenous melphalan; cited from earlier work
[5] = cited from earlier work; for Mean (±SD) peak melphalan plasma concentrations: myeloma patients; for clearance of melphalan: repeat dosing of 0.5 mg/kg every 6 weeks

N[C@H](Cc1ccc(N(CCCl)CCCl)cc1)C(=O)O [medphalan]
activity against certain animal tumors compared with melphalan [1]: less active

N[C@@H](Cc1ccc(N(CCCl)CCCl)cc1)C(=O)O [melphalan, 4-[bis(chloroethyl)amino]phenylalanine]
solubility in water [2]: practically insoluble | extent of melphalan binding to plasma proteins [3]: 60% to 90 | drug (covalently) irreversibly bound to plasma proteins ([3]; plasma): Approximately 30% | share of the plasma protein binding accounted for by α1-acid glycoprotein ([3]; plasma): about 20% | hypersensitivity reactions, including anaphylaxis, share of patients [4]: approximately 2% | steady-state volume of distribution ([5]; after intravenous administration of 50 mg of melphalan): 0.5 L/kg | Mean (±SD) peak melphalan plasma concentrations ([5]; 10 mg/m^2 dose): 1.2 ± 0.4 µg/mL | Mean (±SD) peak melphalan plasma concentrations ([5]; 20 mg/m^2 dose): 2.8 ± 1.9 µg/mL | clearance of melphalan ([5]; after the first course): 8.1 mL/min/kg | clearance of melphalan ([5]; after the third course): 5.5 mL/min/kg
